Assay [1] concerns HepG2 cells. Briefly: MTS assay (Example 1). In kind it is cell-based. Particulars: Homo sapiens, positive control 20 μM, 24 h, mean±SEM, n=3, read-out: HepG2 cell viability. As to the method:
(§1) • (a) Solvent extraction: Four different solvents were used, namely, methanol, hexane:ethyl acetate (39:1), ethyl acetate, and water. Briefly, 2 g of the test material (MH/GL) were dissolved in 80 ml of appropriate solvents (methanol/hexane:ethyl acetate/ethyl acetate), sonicated twice for 20 min at room temperature (RT), and centrifuged at 3000 rpm for 10 min. The supernatant was collected and evaporated using a rotary evaporation system at 65° C. The concentrated extract was subjected to nitrogen evaporation to remove all the solvent, then dissolved in DMSO to a final concentration of 60 mg/ml. For water extraction, 2 g of the test material was dissolved in 80 ml water, sonicated twice for 20 min at RT, kept at RT for three days, vortexed, and centrifuged at 3000 rpm for 10 min. The supernatant was then freeze-dried into powder. The powder was dissolved in DMSO to a final concentration of 60 mg/ml. • (b) MTS assay: The potential inhibitory effects of MH and GL extracts on HepG2 and MDA-MB-231 cells were measured using MTS assay. Briefly, 6000 cells were seeded and treated with different concentrations (6.25, 12.5, 25, 50, 100, 150, and 300 μg/ml) of extracts for 24 h. Then, MTS/PMS reagent was added and absorbance was measured at 490 nm using a plate reader. Sorafenib (20 μM) and doxorubicin (50 μM) were used as positive controls for HepG2 and MDA-MB-231 cells, respectively. […]

Assay [2] relates to MDA-MB-231 cells. Nature of the assay: MTS assay (Example 1). The class given is cell-based. Particulars: Homo sapiens, positive control 50 μM, 24 h, mean±SEM, n=3, read-out: MDA-MB-231 cell viability. As to the method:
as §1
On the technique in general: Formazan colour is commonly taken as a measure of viable cells.

Turning to `CNC(=O)c1cc(Oc2ccc(NC(=O)Nc3ccc(Cl)c(C(F)(F)F)c3)cc2)ccn1` [sorafenib], the viability – broadly, a per cent measure of how many cells are alive, often set against a control – at 20 µM in assay [1] is 26 ± 3.7%.
On to `COc1cccc2c1C(=O)c1c(O)c3c(c(O)c1C2=O)C[C@@](O)(C(=O)CO)C[C@@H]3O[C@H]1C[C@H](N)[C@H](O)[C@H](C)O1` [doxorubicin], for which the viability at 50 µM in assay [2] was 24.4 ± 5.1%.

These data come from patent US20230293611A1, “NATURAL PRODUCT EXTRACTS AND METHODS OF USE THEREOF” (THE ADORED BEAST APOTHECARY LTD., priority 2020, published 2023).
